Reference: patent publication US20200239530A1, “COMPOUNDS AND METHODS OF MODULATING PROTEIN DEGRADATION” (Vividion Therapeutics, Inc., priority 2017, published 2020)

Experiments:
Assay in all cases: Cysteine liganding, probe competition
Type in all cases: binding
UniProt Q9BYV6 = biological target: T1, UniProt Q9BYV6 (Homo sapiens, UniProt Q9BYV6); conditions: read-out: KB02_500 uM_percent_inhibition
T1 construct: 200 μL of lysate containing 5 mg/ml proteome was treated with 2 μL of 100× compound stock; endogenous in cells
Description: (§1) The following 96-well sample prep protocol was used for sample preparation.

UniProt O15344 = biological target: T2, UniProt O15344 (Homo sapiens, UniProt O15344); conditions: 500 uM
T2 construct: Cells were resuspended in cold PBS on ice and sonicated with a probe sonicator to achieve lysis; endogenous in cells
Description: as §1

UniProt Q96PU5 = biological target: T3, UniProt Q96PU5 (Homo sapiens, UniProt Q96PU5)
T3 construct: Cells were resuspended in cold PBS on ice and sonicated with a probe sonicator to achieve lysis; endogenous in cells
Description: as §1

UniProt P51948 = biological target: T4, UniProt P51948 (Homo sapiens, UniProt P51948); conditions: read-out: percent inhibition
T4 construct: Cells were resuspended in cold PBS on ice and sonicated with a probe sonicator to achieve lysis; endogenous in cells
Description: as §1

UniProt Q9H000 = biological target: T5, UniProt Q9H000 (Homo sapiens, UniProt Q9H000); conditions: 100 uM
T5 construct: Cells were resuspended in cold PBS on ice and sonicated with a probe sonicator to achieve lysis; endogenous in cells
Description: as §1

UniProt E7ERA6 = biological target: T6, UniProt E7ERA6 (Homo sapiens, UniProt E7ERA6)
T6 construct: 200 μL of lysate containing 5 mg/ml proteome was treated with 2 μL of 100× compound stock; endogenous in cells
Description: as §1

UniProt Q7L0R7 = biological target: T7, UniProt Q7L0R7 (Homo sapiens, UniProt Q7L0R7)
T7 construct: 200 μL of lysate containing 5 mg/ml proteome was treated with 2 μL of 100× compound stock; endogenous in cells
Description: as §1

UniProt P0DH78 = biological target: T8, UniProt P0DH78 (Homo sapiens, UniProt P0DH78); conditions: read-out: percent_inhibition
T8 construct: 200 μL of lysate containing 5 mg/ml proteome was treated with 2 μL of 100× compound stock; endogenous in cells
Description: as §1

UniProt Q9NQ86 = biological target: T9, UniProt Q9NQ86 (Homo sapiens, UniProt Q9NQ86)
T9 construct: 200 μL of lysate containing 5 mg/ml proteome was treated with 2 μL of 100× compound stock; endogenous in cells
Description: as §1

UniProt Q7Z6E9 = biological target: T10, UniProt Q7Z6E9 (Homo sapiens, UniProt Q7Z6E9); conditions: read-out: KB02_100 uM_percent_inhibition
T10 construct: 200 μL of lysate containing 5 mg/ml proteome was treated with 2 μL of 100× compound stock; endogenous in cells
Description: as §1

UniProt Q13114 = biological target: T11, UniProt Q13114 (Homo sapiens, UniProt Q13114); conditions: read-out: percent_inhibition
T11 construct: 200 μL of lysate containing 5 mg/ml proteome was treated with 2 μL of 100× compound stock; endogenous in cells
Description: as §1

UniProt Q5U5Q3 = biological target: T12, UniProt Q5U5Q3 (Homo sapiens, UniProt Q5U5Q3); conditions: read-out: percent inhibition
T12 construct: Cells were resuspended in cold PBS on ice and sonicated with a probe sonicator to achieve lysis; endogenous in cells
Description: as §1

UniProt A8MQ27 = biological target: T13, UniProt A8MQ27 (Homo sapiens, UniProt A8MQ27); conditions: read-out: percent inhibition
T13 construct: Cells were resuspended in cold PBS on ice and sonicated with a probe sonicator to achieve lysis; endogenous in cells
Description: as §1

UniProt Q9NS56 = biological target: T14, UniProt Q9NS56 (Homo sapiens, UniProt Q9NS56)
T14 construct: 200 μL of lysate containing 5 mg/ml proteome was treated with 2 μL of 100× compound stock; endogenous in cells
Description: as §1

UniProt Q13309 = biological target: T15, UniProt Q13309 (Homo sapiens, UniProt Q13309); conditions: read-out: percent_inhibition
T15 construct: 200 μL of lysate containing 5 mg/ml proteome was treated with 2 μL of 100× compound stock; endogenous in cells
Description: as §1

UniProt P19474 = biological target: T16, UniProt P19474 (Homo sapiens, UniProt P19474); conditions: read-out: KB05_100 uM_percent_inhibition
T16 construct: 200 μL of lysate containing 5 mg/ml proteome was treated with 2 μL of 100× compound stock; endogenous in cells
Description: as §1

UniProt Q99942 = biological target: T17, UniProt Q99942 (Homo sapiens, UniProt Q99942)
T17 construct: 200 μL of lysate containing 5 mg/ml proteome was treated with 2 μL of 100× compound stock; endogenous in cells
Description: as §1

UniProt Q9HAT8 = biological target: T18, UniProt Q9HAT8 (Homo sapiens, UniProt Q9HAT8)
T18 construct: 200 μL of lysate containing 5 mg/ml proteome was treated with 2 μL of 100× compound stock; endogenous in cells
Description: as §1

UniProt O14512 = biological target: T19, UniProt O14512 (Homo sapiens, UniProt O14512); conditions: read-out: percent_inhibition
T19 construct: 200 μL of lysate containing 5 mg/ml proteome was treated with 2 μL of 100× compound stock; endogenous in cells
Description: as §1

UniProt Q9UPQ7 = biological target: T20, UniProt Q9UPQ7 (Homo sapiens, UniProt Q9UPQ7)
T20 construct: 200 μL of lysate containing 5 mg/ml proteome was treated with 2 μL of 100× compound stock; endogenous in cells
Description: as §1

UniProt Q6ZMN7 = biological target: T21, UniProt Q6ZMN7 (Homo sapiens, UniProt Q6ZMN7); conditions: read-out: KB05_500 uM_percent_inhibition
T21 construct: 200 μL of lysate containing 5 mg/ml proteome was treated with 2 μL of 100× compound stock; endogenous in cells
Description: as §1

UniProt Q149N8 = biological target: T22, UniProt Q149N8 (Homo sapiens, UniProt Q149N8); conditions: read-out: percent_inhibition
T22 construct: 200 μL of lysate containing 5 mg/ml proteome was treated with 2 μL of 100× compound stock; endogenous in cells
Description: as §1

UniProt Q9C030 = biological target: T23, UniProt Q9C030 (Homo sapiens, UniProt Q9C030); conditions: read-out: KB05_500 uM_percent_inhibition
T23 construct: 200 μL of lysate containing 5 mg/ml proteome was treated with 2 μL of 100× compound stock; endogenous in cells
Description: as §1

UniProt Q8N653 = biological target: T24, UniProt Q8N653 (Homo sapiens, UniProt Q8N653); conditions: read-out: percent inhibition
T24 construct: Cells were resuspended in cold PBS on ice and sonicated with a probe sonicator to achieve lysis; endogenous in cells
Description: as §1

UniProt Q86XN8 = biological target: T25, UniProt Q86XN8 (Homo sapiens, UniProt Q86XN8); conditions: 100 uM
T25 construct: Cells were resuspended in cold PBS on ice and sonicated with a probe sonicator to achieve lysis; endogenous in cells
Description: as §1

UniProt Q9BUZ4 = biological target: T26, UniProt Q9BUZ4 (Homo sapiens, UniProt Q9BUZ4); conditions: 100 uM
T26 construct: 200 μL of lysate containing 5 mg/ml proteome was treated with 2 μL of 100× compound stock; endogenous in cells
Description: as §1

UniProt P14373 = biological target: T27, UniProt P14373 (Homo sapiens, UniProt P14373); conditions: 100 uM
T27 construct: 200 μL of lysate containing 5 mg/ml proteome was treated with 2 μL of 100× compound stock; endogenous in cells
Description: as §1

UniProt O75382 = biological target: T28, UniProt O75382 (Homo sapiens, UniProt O75382); conditions: 100 uM
T28 construct: 200 μL of lysate containing 5 mg/ml proteome was treated with 2 μL of 100× compound stock; endogenous in cells
Description: as §1

UniProt Q9C019 = biological target: T29, UniProt Q9C019 (Homo sapiens, UniProt Q9C019); conditions: 100 uM
T29 construct: 200 μL of lysate containing 5 mg/ml proteome was treated with 2 μL of 100× compound stock; endogenous in cells
Description: as §1

UniProt Q8NG27 = biological target: T30, UniProt Q8NG27 (Homo sapiens, UniProt Q8NG27); conditions: 100 uM
T30 construct: 200 μL of lysate containing 5 mg/ml proteome was treated with 2 μL of 100× compound stock; endogenous in cells
Description: as §1

UniProt Q15025 = biological target: T31, UniProt Q15025 (Homo sapiens, UniProt Q15025); conditions: 100 uM
T31 construct: 200 μL of lysate containing 5 mg/ml proteome was treated with 2 μL of 100× compound stock; endogenous in cells
Description: as §1

UniProt Q86TM6 = biological target: T32, UniProt Q86TM6 (Homo sapiens, UniProt Q86TM6); conditions: 100 uM
T32 construct: 200 μL of lysate containing 5 mg/ml proteome was treated with 2 μL of 100× compound stock; endogenous in cells
Description: as §1

T7 sequence (Q7L0R7 whole entry, change not shown): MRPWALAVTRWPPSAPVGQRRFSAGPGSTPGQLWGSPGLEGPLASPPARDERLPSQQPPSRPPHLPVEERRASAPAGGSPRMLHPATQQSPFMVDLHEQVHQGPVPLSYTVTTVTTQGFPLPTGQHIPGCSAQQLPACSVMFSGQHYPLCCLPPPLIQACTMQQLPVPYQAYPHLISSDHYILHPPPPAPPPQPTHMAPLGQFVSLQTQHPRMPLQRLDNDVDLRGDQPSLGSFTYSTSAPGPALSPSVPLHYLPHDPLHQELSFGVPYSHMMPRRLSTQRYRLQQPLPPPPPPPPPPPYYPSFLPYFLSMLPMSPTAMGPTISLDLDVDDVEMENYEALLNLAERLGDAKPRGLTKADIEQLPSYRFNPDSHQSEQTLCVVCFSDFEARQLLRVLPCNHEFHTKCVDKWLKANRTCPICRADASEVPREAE
T6 sequence (E7ERA6 whole entry, change not shown): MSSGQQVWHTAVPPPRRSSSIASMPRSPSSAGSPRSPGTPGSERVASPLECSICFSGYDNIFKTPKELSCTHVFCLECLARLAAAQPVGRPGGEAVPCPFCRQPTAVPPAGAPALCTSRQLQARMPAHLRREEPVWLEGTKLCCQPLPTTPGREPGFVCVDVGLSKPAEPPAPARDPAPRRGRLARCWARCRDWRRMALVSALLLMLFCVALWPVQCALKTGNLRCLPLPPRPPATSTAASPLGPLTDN
T9 sequence (Q9NQ86 whole entry, change not shown): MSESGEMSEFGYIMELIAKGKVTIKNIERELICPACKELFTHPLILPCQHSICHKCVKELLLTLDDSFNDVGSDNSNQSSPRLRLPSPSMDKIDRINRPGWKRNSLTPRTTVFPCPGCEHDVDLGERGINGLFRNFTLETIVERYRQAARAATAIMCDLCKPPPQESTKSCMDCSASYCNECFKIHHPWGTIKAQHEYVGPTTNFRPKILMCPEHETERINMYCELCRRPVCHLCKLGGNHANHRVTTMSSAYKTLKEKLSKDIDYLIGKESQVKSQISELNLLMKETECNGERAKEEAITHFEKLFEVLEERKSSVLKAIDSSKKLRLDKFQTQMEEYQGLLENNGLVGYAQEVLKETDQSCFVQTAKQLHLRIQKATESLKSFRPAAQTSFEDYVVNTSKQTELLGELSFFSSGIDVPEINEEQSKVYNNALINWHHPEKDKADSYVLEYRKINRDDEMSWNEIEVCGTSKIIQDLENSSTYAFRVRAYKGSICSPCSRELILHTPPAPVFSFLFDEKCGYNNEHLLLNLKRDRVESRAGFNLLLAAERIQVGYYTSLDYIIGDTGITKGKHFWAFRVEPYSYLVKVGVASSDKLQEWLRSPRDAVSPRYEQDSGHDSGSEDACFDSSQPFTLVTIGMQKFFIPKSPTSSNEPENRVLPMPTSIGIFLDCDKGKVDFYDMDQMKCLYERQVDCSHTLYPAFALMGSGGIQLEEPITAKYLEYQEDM
T14 sequence (Q9NS56 whole entry, change not shown): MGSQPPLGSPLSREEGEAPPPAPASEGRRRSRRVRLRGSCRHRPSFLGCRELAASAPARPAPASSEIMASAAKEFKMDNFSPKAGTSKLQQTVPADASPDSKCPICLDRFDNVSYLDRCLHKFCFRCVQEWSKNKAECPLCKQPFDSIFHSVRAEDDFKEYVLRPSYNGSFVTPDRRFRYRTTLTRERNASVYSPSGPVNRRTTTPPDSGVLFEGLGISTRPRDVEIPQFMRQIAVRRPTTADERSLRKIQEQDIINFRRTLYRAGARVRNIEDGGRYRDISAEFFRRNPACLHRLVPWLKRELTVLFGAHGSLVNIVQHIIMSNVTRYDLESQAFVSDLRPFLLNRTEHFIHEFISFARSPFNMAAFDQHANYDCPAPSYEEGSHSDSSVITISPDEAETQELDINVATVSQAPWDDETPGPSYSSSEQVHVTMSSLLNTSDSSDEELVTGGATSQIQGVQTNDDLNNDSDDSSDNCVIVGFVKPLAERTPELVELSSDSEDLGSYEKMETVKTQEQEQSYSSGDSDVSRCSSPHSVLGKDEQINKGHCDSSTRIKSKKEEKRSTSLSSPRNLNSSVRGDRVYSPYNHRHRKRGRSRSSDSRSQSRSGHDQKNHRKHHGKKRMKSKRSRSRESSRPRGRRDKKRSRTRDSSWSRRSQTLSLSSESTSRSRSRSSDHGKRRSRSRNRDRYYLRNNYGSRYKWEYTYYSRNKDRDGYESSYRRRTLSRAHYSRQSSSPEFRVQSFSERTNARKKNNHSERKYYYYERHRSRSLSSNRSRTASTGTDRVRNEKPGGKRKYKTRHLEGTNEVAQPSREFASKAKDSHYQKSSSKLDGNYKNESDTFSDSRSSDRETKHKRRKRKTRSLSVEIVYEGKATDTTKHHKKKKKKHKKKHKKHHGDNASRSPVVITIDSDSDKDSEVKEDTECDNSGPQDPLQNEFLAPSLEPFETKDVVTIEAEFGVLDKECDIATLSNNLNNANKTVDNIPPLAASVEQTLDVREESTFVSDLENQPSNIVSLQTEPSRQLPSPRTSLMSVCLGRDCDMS
T18 sequence (Q9HAT8 whole entry, change not shown): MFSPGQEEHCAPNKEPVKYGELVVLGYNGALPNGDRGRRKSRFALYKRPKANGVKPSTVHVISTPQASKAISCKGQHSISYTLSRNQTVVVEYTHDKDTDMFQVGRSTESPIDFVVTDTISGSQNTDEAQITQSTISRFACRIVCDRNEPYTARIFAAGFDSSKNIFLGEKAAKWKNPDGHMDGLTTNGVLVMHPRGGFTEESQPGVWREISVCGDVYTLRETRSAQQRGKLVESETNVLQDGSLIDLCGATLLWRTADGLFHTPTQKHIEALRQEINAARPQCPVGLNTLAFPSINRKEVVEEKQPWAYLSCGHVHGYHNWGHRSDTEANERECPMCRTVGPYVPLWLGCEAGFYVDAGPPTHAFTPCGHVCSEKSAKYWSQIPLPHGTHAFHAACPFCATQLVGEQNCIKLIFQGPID
T17 sequence (Q99942 whole entry, change not shown): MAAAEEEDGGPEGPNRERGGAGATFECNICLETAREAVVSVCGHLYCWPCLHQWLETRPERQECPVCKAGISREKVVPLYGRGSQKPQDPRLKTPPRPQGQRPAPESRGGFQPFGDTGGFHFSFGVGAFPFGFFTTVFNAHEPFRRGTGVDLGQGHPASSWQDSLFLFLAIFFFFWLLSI
T8 sequence (P0DH78 whole entry, change not shown): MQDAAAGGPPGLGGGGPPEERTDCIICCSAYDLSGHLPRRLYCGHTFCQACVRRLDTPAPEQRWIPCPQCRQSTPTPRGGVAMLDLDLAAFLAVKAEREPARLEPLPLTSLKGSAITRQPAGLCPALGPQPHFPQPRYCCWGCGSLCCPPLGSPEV
T3 sequence (Q96PU5 whole entry, change not shown): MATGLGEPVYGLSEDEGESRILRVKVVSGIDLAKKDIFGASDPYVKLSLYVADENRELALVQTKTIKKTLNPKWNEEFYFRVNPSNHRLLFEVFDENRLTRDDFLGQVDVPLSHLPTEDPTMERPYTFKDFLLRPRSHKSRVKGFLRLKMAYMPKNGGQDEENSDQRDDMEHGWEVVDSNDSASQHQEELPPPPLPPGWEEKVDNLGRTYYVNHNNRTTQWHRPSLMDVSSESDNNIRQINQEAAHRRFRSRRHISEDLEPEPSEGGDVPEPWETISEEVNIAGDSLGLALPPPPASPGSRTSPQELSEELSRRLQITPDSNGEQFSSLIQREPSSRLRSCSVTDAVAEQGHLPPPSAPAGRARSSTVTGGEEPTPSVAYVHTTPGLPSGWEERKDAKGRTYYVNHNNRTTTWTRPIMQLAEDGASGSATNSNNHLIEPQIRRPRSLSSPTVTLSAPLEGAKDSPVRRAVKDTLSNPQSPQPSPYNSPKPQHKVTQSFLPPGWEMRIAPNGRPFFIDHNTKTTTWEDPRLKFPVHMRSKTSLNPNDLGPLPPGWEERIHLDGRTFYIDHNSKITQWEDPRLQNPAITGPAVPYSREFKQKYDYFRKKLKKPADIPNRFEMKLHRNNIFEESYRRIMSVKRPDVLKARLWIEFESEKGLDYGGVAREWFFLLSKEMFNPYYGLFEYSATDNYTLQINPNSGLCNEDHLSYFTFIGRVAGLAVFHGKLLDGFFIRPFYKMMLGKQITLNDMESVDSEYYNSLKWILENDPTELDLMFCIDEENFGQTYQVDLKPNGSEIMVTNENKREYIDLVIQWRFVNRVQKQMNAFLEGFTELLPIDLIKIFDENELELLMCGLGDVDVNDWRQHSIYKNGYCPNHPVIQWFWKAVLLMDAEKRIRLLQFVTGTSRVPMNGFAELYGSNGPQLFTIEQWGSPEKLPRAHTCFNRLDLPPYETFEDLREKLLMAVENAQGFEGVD
T25 sequence (Q86XN8 whole entry, change not shown): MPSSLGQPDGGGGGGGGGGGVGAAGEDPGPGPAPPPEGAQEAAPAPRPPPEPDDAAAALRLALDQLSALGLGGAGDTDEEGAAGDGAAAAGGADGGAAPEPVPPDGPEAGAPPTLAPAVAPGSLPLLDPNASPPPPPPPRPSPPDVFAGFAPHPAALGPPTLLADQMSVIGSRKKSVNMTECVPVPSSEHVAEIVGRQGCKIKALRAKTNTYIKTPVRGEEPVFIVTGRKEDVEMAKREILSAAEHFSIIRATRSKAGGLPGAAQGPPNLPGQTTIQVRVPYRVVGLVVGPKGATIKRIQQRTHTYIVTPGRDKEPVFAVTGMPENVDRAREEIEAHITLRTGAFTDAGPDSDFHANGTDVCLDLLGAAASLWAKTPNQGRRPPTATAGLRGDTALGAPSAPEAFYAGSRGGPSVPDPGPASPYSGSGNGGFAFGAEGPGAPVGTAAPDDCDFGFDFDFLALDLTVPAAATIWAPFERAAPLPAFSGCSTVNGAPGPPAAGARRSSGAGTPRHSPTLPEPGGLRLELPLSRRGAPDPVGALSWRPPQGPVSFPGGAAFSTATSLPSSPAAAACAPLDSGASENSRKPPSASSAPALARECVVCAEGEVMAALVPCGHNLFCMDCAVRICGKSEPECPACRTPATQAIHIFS

## COc1ccc2c(c1)CCCN2C(=O)CCl [KB02]
UniProt Q9BYV6
  inhibition at 500 µM: 1%
UniProt O15344
  percent inhibition: 24%
UniProt Q96PU5; 100 uM
  percent inhibition: 33%
UniProt Q96PU5; read-out: percent inhibition
  inhibition at 100 µM: 30%
UniProt P51948
  inhibition at 100 µM: 3%
UniProt Q9H000
  percent inhibition: 24%
UniProt E7ERA6; 500 uM
  percent_inhibition: 38%
UniProt E7ERA6; read-out: percent_inhibition
  inhibition at 500 µM: 35%
UniProt Q7L0R7; 100 uM, read-out: percent_inhibition
  inhibition at 100 µM: 44%
UniProt Q7L0R7; 500 uM
  percent_inhibition: 42%
UniProt Q7L0R7; 500 uM, read-out: percent_inhibition
  inhibition at 500 µM: 41%
UniProt P0DH78; 100 uM
  inhibition at 100 µM: 17%
UniProt P0DH78; 500 uM
  inhibition at 500 µM: 67%
UniProt Q9NQ86; 100 uM, read-out: KB02_100 uM_percent_inhibition
  inhibition at 100 µM: 27%
UniProt Q9NQ86; 500 uM
  KB02_500 uM_percent_inhibition: 88%
UniProt Q7Z6E9
  inhibition at 100 µM: 23%
UniProt Q13114
  inhibition at 100 µM: 33%
UniProt Q5U5Q3
  inhibition at 100 µM: 5%

## C=CC(=O)N(c1ccccc1)c1ccc(Br)cc1 [KB05]
UniProt A8MQ27
  inhibition at 500 µM: 44%
UniProt Q9NS56; 100 uM
  percent_inhibition: 11%
UniProt Q9NS56; read-out: percent_inhibition
  inhibition at 100 µM: 13%
UniProt Q13309
  inhibition at 100 µM: 10%
UniProt P19474
  inhibition at 100 µM: 39%
UniProt Q99942; 100 uM
  percent_inhibition: 15%
UniProt Q99942; read-out: percent_inhibition
  inhibition at 100 µM: 14%
UniProt Q9HAT8; 100 uM, read-out: KB05_100 uM_percent_inhibition
  inhibition at 100 µM: 15%
UniProt Q9HAT8; 500 uM, read-out: KB05_500 uM_percent_inhibition
  inhibition at 500 µM: 63%
UniProt O14512
  inhibition at 500 µM: 89%
UniProt Q9UPQ7; 100 uM
  KB05_100 uM_percent_inhibition: 24%
UniProt Q9UPQ7; read-out: KB05_100 uM_percent_inhibition
  inhibition at 100 µM: 20%
UniProt Q6ZMN7
  inhibition at 500 µM: 1%
UniProt Q149N8
  inhibition at 100 µM: 41%
UniProt Q9C030
  inhibition at 500 µM: 53%
UniProt Q8N653
  inhibition at 100 µM: 11%

## O=C(CCl)Nc1cc(C(F)(F)F)cc(C(F)(F)F)c1 [KBO3]
UniProt Q86XN8
  percent inhibition: 48%
UniProt Q9BUZ4
  percent_inhibition: 30%
UniProt P14373
  KB03_100 uM_percent_inhibition: 13%
UniProt O75382
  KB03_100 uM_percent_inhibition: 45%
UniProt Q9C019
  KB03_100 uM_percent_inhibition: 18%
UniProt Q8NG27
  KB03_100 uM_percent_inhibition: 16%
UniProt Q15025
  percent_inhibition: 3%
UniProt Q86TM6
  percent_inhibition: 19%
